Where two headings read alike, the source gives them in different places. Some results are limits rather than exact numbers.

The subject of experiment [1] is PAF-Induced Bronchoconstriction. The experiment in a line: PAF Induced Bronchoconstriction Assay. Format: in vivo, guinea pig. To be noted: for Percent Inhib. of PAF-Induced Bronchoconstriction, mg/Kg i.v.: i.v. (dose not given), 1 minute pretreatment, PAF 1.0 μg/kg i.v.; for inhibition in vivo at 50 mg/kg: Cavia porcellus, po, 50 mg/Kg p.o., 2-hour pretreatment, read-out: Percent Inhib. of PAF-Induced Bronchoconstriction, 50 mg/Kg p.o. As for the experimental part:
PAF Induced Bronchoconstriction Assay
Male animals (Hartlet Strain 400-500 g) were anesthetized with urethane (2 g/kg. i.p.). Each animals' trachea was cannulated and the guinea pigs were repirated using a Harvard small animal rodent respirator (3.0 cc stroke volume, 40 breaths per min.). Tracheal pressure was recorded from a cannula inserted in the trachea and connected to a Statham Pressure Transducer.
The jugular vein was cannulated for administering compounds. Spontaneous breathing was arrested with succinylcholine (1.2 mg/kg. i.v.) administered 2 minutes prior to intravenous injection of platelet activating factor (PAF).
For, the intravenous testing, the guinea pig is given a 5-minute pretreatment with propranolol at a dose of 0.1 mg/kg intravenously. The test compound is administered with a 1 minute pretreatment prior to intravenous challenge with PAF. The animal is than challenged with a 1.0 μg/kg intravenous dose of PAF and the change is tracheal pressure is measured.
For the oral testing, the procedure includes a 2-hour pretreatment period with the test compound administered through an oral gavage tube. Propranolol or succinylcholine and PAF are administered intravenously, and the change in tracheal pressure measured.
The change is tracheal pressure is determined by subtracting the steady state baseline achieved after administration of succinylcholine from the peak bronchoconstriction seen after challenge with PAF. The mean is calculated for each test compound and compared to the mean of the control animals to give the percent inhibition of bronchoconstriction. The standard error is calcuated as the standard error of the mean.

The target of experiment [2] is T1, PAF Binding, dog platelets (Canis lupus familiaris, UniProt A0A8I3NSH0).
T1 construct: Washed platelets were prepared by resuspending the platelet pellet once with PBS containing 1 mM EDTA; from tissue; host or cells: washed platelets from dog blood
T1 sequence (A0A8I3NSH0 1-343): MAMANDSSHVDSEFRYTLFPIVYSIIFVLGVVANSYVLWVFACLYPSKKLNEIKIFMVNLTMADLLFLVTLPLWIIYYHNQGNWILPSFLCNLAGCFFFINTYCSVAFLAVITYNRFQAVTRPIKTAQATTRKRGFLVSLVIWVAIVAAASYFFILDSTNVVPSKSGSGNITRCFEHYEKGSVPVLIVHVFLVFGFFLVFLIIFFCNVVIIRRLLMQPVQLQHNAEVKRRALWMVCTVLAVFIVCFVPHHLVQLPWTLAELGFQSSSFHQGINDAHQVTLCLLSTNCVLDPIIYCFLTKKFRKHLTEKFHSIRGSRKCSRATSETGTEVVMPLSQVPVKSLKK
The experiment in a line: PAF Binding Assay (inhibition of 3H-PAF binding to washed dog platelets). As for the experimental part: The binding assay was done in 400 μl polyethylene microcentrifuge tubes (Beckman) containing 50 μl of an oil mixture of 2 parts Siliconol AR200 (Serva): 1 part Silicone Fluid (Arthur H. Thomas). Buffer, standards, or analogs (150 μl total volume) were added to the tubes. Radiolabelled ^3 H-PAF (50 μl) was then added to the tubes. The reaction was started by the addition of 50 μl of dog platelets (2×10^7 platelets). The tubes were capped, inverted several times to mix, and incubated for 10 minutes at room temperature. The platelets were separated from the incubation mixture by centrifuging 1 minute in a Beckman Microfuge B centrifuge. The tip of the microfuge tube was cut off, and the platelets were washed out of the tip with 200 μl of 50% methanol (Burdick and Jackson). Aquasol (NEN, 10 ml) was added and the radioactivity in the samples was determined using an LS 8100 Beckman liquid scintillation counter linked to a Techtran tape recorder. Data was processed through an in-house computer system. Alternatively, radioactivity was determined using a Searle Mark III liquid scintillation counter linked to a Iso-Data microprocessor.
(b) Preparation of Platelets
Blood was collected from anesthesized or unanesthesized dogs into 50 ml plastic centrifuge tubes containing 3.8% sodium citrate as the anticoagulant (1 volume of citrate/9 volumes of blood). The red cells were removed by centrifugation for 15 minutes at 600 rpm (100-125 g) at room temperature. An aliquot of the supernatant platelet rich plasma (PRP) was saved for cell counting and the remainder was acidified to PH 6.5 with 0.15M citric acid. The platelet pellet was obtained after a 10 minute centrifugation at 2000 rpm (1000 g) at room temperature. Washed platelets were prepared by resuspending the platelet pellet once with PBS containing 1 mM EDTA, centrifuging as noted, and then resuspending the platelets in 0.1% BSA-PBS. An aliquot of the washed platelets was counted. Platelets used for binding assays were diluted to 2×10^7 platelets/assay tube (4×10^8 platelets/ml). Platelet counting was done using a Royco Cell-Crit 921.

Setting [3] is: dog platelets, 3H-PAF, 10 minutes at room temperature, read-out: Inhib of PAF Binding IC50.

For the compound `CCCC(CCCc1cccnc1)NC(=O)/C=C/C=C(c1ccc(OC)cc1)c1ccc(OC)cc1` (racemic) [[R,S-(E)]-5,5-bis(4-methoxyphenyl)-N-[1-propyl-4-(3-pyridinyl)butyl]-2,4-pentadienamide], in experiment [1], the “Percent Inhib. of PAF-Induced Bronchoconstriction, mg/Kg i.v.” value is 24 ± 13%. Moreover, the IC50 in experiment [2] (setting [3]) is more than 1000 nM.

With `CCC(CCCc1cccnc1)NC(=O)/C=C/C=C(c1ccc(OC)cc1)c1ccc(OC)cc1` (racemic) [[R,S-(E)]-N-1-ethyl-4-(3-pyridinyl)butyl]-5,5-bis(4-methoxyphenyl)-2,4-pentadienamide], in experiment [1], the inhibition in vivo at 50 mg/kg was 99 ± 1% and the “Percent Inhib. of PAF-Induced Bronchoconstriction, mg/Kg i.v.” value is 86 ± 8%. Besides, the IC50 in experiment [2] (setting [3]) was determined as 90 nM.

On to `COc1ccc(C(=C/C=C/C(=O)NC(CCCc2cccnc2)c2ccc(Br)cc2)c2ccc(OC)cc2)cc1` (racemic) [[R,S-(E)]-N-[1-(4-bromophenyl)-4-(3-pyridinyl)butyl]-5,5-bis(4-methoxyphenyl)2.4-pentadienamide], for which the “Percent Inhib. of PAF-Induced Bronchoconstriction, mg/Kg i.v.” value in experiment [1] was found to be 6 ± 13%. The IC50 in experiment [2] (setting [3]) was more than 1000 nM.

Turning to `CCCCC(CCCc1cccnc1)NC(=O)/C=C/C=C(c1ccc(OC)cc1)c1ccc(OC)cc1` (racemic) [[R,S-(E)]-N-[1-butyl-4-(3-pyridinyl)butyl]-5,5-bis(4-methoxyphenyl)-2,4-pentadienamide], in experiment [1], the “Percent Inhib. of PAF-Induced Bronchoconstriction, mg/Kg i.v.” value stood at 42 ± 7%. Moreover, the IC50 in experiment [2] (setting [3]) was more than 1000 nM.

As to `COc1ccc(C(=C/C=C/C(=O)NC(CCCc2cccnc2)C2CCCCC2)c2ccc(OC)cc2)cc1` (racemic) [[R,S-(E)]-N-[1-cyclohexyl-4-(3-pyridinyl)butyl]-5,5-bis(4-methoxyphenyl)-2,4-pentadienamide], the “Percent Inhib. of PAF-Induced Bronchoconstriction, mg/Kg i.v.” value in experiment [1] is 11 ± 15%. In addition, the IC50 in experiment [2] (setting [3]) is more than 1000 nM.

As for `COc1ccc(C(=C/C=C/C(=O)NC(CCCc2cccnc2)C2CCCC2)c2ccc(OC)cc2)cc1` (racemic) [[R,S-(E)]-N-[1-cyclopentyl-4-(3-pyridinyl)butyl]-5,5-bis-(4-methoxyphenyl)-2,4-pentadienamide], the “Percent Inhib. of PAF-Induced Bronchoconstriction, mg/Kg i.v.” value in experiment [1] was found to be 19 ± 14%. For the same compound, the half-maximal inhibitory concentration (IC50) in experiment [2] (setting [3]) was more than 1000 nM.

As for `COc1ccc(C(=C/C=C/C(=O)NC(CCCc2cccnc2)C2CC2)c2ccc(OC)cc2)cc1` (racemic) [[R,S-(E)]-N-[1-cyclopropyl-4-(3-pyridinyl)butyl]-5,5-bis-(4-methoxyphenyl)-2,4-pentadienamide], in experiment [1], the inhibition in vivo at 50 mg/kg amounted to 99 ± 0.3% and the “Percent Inhib. of PAF-Induced Bronchoconstriction, mg/Kg i.v.” value is 98 ± 1%. Also, in experiment [2] (setting [3]), the IC50 is 60 nM.

As for `CCCCC/C(=C\C=C\C(=O)NC(C)CCCc1cccnc1C)c1ccc(OC)cc1` (racemic) [[R,S-(E,E)]-5-(4-methoxyphenyl)-N-[1-methyl-4-(2-methyl-3-pyridinyl)butyl]-2,4-decadienamide], the “Percent Inhib. of PAF-Induced Bronchoconstriction, mg/Kg i.v.” value in experiment [1] was determined as 77 ± 5%. Further, the IC50 in experiment [2] (setting [3]) is 5 nM.

`COc1ccc(/C(=C/C=C/C(=O)NCCCCc2cccnc2)c2ccccc2OC)cc1` [(2E,4Z)-5-(2-methoxyphenyl)-5-(4-methoxyphenyl)-N-[4-(3-pyridinyl)butyl]-2,4-pentadienamide]: the “Percent Inhib. of PAF-Induced Bronchoconstriction, mg/Kg i.v.” value in experiment [1] turned out to be 36 ± 6%. Besides, the IC50 in experiment [2] (setting [3]) is 55 nM.

For the compound `COc1ccc(/C(=C/C=C/C(=O)NCCCCc2cccnc2)c2cccnc2)cc1` [(2E,4Z)-5-(4-methoxyphenyl)-5-(3-pyridinyl)-N-[4-(3-pyridinyl)butyl]-2,4-pentadienamide], in experiment [1], the inhibition in vivo at 50 mg/kg was 39 ± 8% and the “Percent Inhib. of PAF-Induced Bronchoconstriction, mg/Kg i.v.” value is 78 ± 10%. Besides, the IC50 in experiment [2] (setting [3]) was found to be 50 nM.

Regarding `CCCCC/C(=C/C=C/C(=O)NCCCCc1cccnc1)c1ccc(OC)cc1` [(2E,4Z)-5-(4-methoxyphenyl)-N-[4-(3-pyridinyl)butyl]-2,4-decadienamide], the “Percent Inhib. of PAF-Induced Bronchoconstriction, mg/Kg i.v.” value in experiment [1] is 68 ± 11%. Besides, the IC50 in experiment [2] (setting [3]) worked out at 40 nM.

As for `COc1ccccc1C(=C/C=C/C(=O)NCCCCc1cccnc1)c1ccccc1OC` [(E)-5,5-bis (2-methoxyphenyl)-N-[4-(3-pyridinyl)butyl]-2,4-pentadienamide], the “Percent Inhib. of PAF-Induced Bronchoconstriction, mg/Kg i.v.” value in experiment [1] is 40 ± 2%. The IC50 in experiment [2] (setting [3]) was 40 nM.

As to `COc1ccc(C(=C/C=C/C(=O)NCCCCc2cccnc2)c2ccc(OC)c(OC)c2)cc1OC` [(E)-5,5-bis(3,4-Dimethoxyphenyl)-N-[4-(3-pyridinyl)butyl]-2,4-pentadienamide], in experiment [1], the inhibition in vivo at 50 mg/kg was 71 ± 2% and the “Percent Inhib. of PAF-Induced Bronchoconstriction, mg/Kg i.v.” value is recorded as 78 ± 6%. Besides, in experiment [2] (setting [3]), the IC50 was 55 nM.

`O=C(/C=C/C=C(c1cccc([N+](=O)[O-])c1)c1cccc([N+](=O)[O-])c1)NCCCCc1cccnc1` [(E)-5,5-bis(3-nitrophenyl)-N-[4-(3-pyridinyl)butyl)-2,4-pentadienamide]: the “Percent Inhib. of PAF-Induced Bronchoconstriction, mg/Kg i.v.” value in experiment [1] is 18 ± 2%. Further, in experiment [2], the IC50 came to 115 nM.

With `COc1ccc(C(=C/C=C/C(=O)NCCCc2ccncc2)c2ccc(OC)cc2)cc1` [(E)-5,5-bis(4-methoxyphenyl)-N-[3-(4-pyridinyl)propyl]-2,4-pentadienamide], the “Percent Inhib. of PAF-Induced Bronchoconstriction, mg/Kg i.v.” value in experiment [1] is on record as 8 ± 12%. In addition, the IC50 in experiment [2] (setting [3]) was found to be 100 nM.

For the compound `COc1ccc(C(=C/C=C/C(=O)Nc2ccc(Cc3cccnc3)cc2)c2ccc(OC)cc2)cc1` [(E)-5,5-bis(4-methoxyphenyl)-N-[4-(3pyridinylmethyl)phenyl]-2,4-pentadienamide], the “Percent Inhib. of PAF-Induced Bronchoconstriction, mg/Kg i.v.” value in experiment [1] was determined as 3 ± 7%. For the same compound, the IC50 in experiment [2] (setting [3]) was 250 nM.

As to `COc1ccc(C(=C/C=C/C(=O)NCCCCCc2ccccn2)c2ccc(OC)cc2)cc1` [(E)-5,5-bis(4-methoxyphenyl)-N-[5-(2-pyridinyl)pentyl]-2,4-pentadienamide], the “Percent Inhib. of PAF-Induced Bronchoconstriction, mg/Kg i.v.” value in experiment [1] came out at 27 ± 6%. The IC50 in experiment [2] (setting [3]) is 1000 nM.

Turning to `COc1ccc(C(=C/C=C/C(=O)NC(CCCc2cccnc2)CCCc2cccnc2)c2ccc(OC)cc2)cc1` [(E)-5,5-bis-(4-methoxyphenyl)-N-[1-[3-(3-pyridinyl)propyl]-4-(3-pyridinyl)-butyl]-2,4-pentadienamide], the “Percent Inhib. of PAF-Induced Bronchoconstriction, mg/Kg i.v.” value in experiment [1] was 50 ± 15%. Also, the IC50 in experiment [2] (setting [3]) came out at 500 nM.

On to `COc1ccc(C(=C/C=C/C(=O)Nc2ccc(-c3cccnc3)cc2)c2ccc(OC)cc2)cc1` [(E)-5,5-bis-(4-methoxyphenyl)-N-[4-(3-pyridinyl)phenyl]-2,4-pentadienamide], for which, in experiment [1], the inhibition in vivo at 50 mg/kg is 84 ± 8% and the “Percent Inhib. of PAF-Induced Bronchoconstriction, mg/Kg i.v.” value was 97 ± 1%. In addition, the IC50 in experiment [2] (setting [3]) worked out at 10 nM.

For the compound `COc1ccc(/C(=C\C=C\C(=O)NCCCCc2cccnc2)c2ccccc2OC)cc1` [(E,E)-5-(2-methoxyphenyl)-5-(4-methoxyphenyl)-N-[4-(3-pyridinyl)butyl]-2,4-pentadienamide], in experiment [1], the inhibition in vivo at 50 mg/kg came out at 21 ± 7% and the “Percent Inhib. of PAF-Induced Bronchoconstriction, mg/Kg i.v.” value is listed as 80 ± 5%. The IC50 in experiment [2] (setting [3]) was found to be 45 nM.

The record behind these values is patent US4788206A, “Pentadieneamides” (Hoffmann-La Roche Inc., priority 1987, dated 1988).
